Measurements as given in publication PMC3269548 (Neuropharmacology, 2011).
Values joined by “and” are separate entries in the source; they are usually repeats but may differ in a detail not shown here. Identical values can stand only once. “Also recorded” adds a separate entry of the source. Like-named read-outs stand apart in the source and are kept apart here.

Assays:
AMPA receptors = assay: Preliminary studies of antagonist activity at AMPA receptors
[1] = system: GluN1/GluN2A-D NMDA receptors; format: cell-based
[2] = biological target: GluN1/GluN2A NMDA receptor (Rattus norvegicus, UniProt P35439+Q00959); format: cell-based; conditions: for IC50: IC50 GluN1/GluN2A
[3] = system: GluN1/GluN2A receptors with the NTD deleted on both the GluN1 and GluN2 subunits; assay: Inhibition of NTD-deleted GluN1/GluN2A receptor responses in Xenopus oocytes; format: cell-based
[4] = system: GluN1/GluN2D receptors with the NTD deleted on both the GluN1 and GluN2 subunits; assay: Inhibition of NTD-deleted GluN1/GluN2D receptor responses in Xenopus oocytes; format: cell-based
[5] = biological target: GluN1/GluN2B NMDA receptor (Rattus norvegicus, UniProt P35439+Q00960); format: cell-based; conditions: 10 μM L-glutamate plus 10 μM glycine, ± s.e.m., n ≥ 4
[6] = biological target: GluN1/GluN2D NMDA receptor (Rattus norvegicus, UniProt P35439+Q62645); format: cell-based; conditions: for IC50: IC50 GluN1/GluN2D
[7] = biological target: GluN1/GluN2C NMDA receptor (Rattus norvegicus, UniProt P35439+Q00961); format: cell-based; conditions: 10 μM L-glutamate plus 10 μM glycine, ± s.e.m., n ≥ 4
[8] = 10 μM L-glutamate plus 10 μM glycine, ± s.e.m., n ≥ 4
[9] = 10 μM L-glutamate plus 10 μM glycine, −60 mV, ± s.e.m., n ≥ 4

GluN1/GluN2B NMDA receptor, sequence (Q00960 27-1482, other chains not shown): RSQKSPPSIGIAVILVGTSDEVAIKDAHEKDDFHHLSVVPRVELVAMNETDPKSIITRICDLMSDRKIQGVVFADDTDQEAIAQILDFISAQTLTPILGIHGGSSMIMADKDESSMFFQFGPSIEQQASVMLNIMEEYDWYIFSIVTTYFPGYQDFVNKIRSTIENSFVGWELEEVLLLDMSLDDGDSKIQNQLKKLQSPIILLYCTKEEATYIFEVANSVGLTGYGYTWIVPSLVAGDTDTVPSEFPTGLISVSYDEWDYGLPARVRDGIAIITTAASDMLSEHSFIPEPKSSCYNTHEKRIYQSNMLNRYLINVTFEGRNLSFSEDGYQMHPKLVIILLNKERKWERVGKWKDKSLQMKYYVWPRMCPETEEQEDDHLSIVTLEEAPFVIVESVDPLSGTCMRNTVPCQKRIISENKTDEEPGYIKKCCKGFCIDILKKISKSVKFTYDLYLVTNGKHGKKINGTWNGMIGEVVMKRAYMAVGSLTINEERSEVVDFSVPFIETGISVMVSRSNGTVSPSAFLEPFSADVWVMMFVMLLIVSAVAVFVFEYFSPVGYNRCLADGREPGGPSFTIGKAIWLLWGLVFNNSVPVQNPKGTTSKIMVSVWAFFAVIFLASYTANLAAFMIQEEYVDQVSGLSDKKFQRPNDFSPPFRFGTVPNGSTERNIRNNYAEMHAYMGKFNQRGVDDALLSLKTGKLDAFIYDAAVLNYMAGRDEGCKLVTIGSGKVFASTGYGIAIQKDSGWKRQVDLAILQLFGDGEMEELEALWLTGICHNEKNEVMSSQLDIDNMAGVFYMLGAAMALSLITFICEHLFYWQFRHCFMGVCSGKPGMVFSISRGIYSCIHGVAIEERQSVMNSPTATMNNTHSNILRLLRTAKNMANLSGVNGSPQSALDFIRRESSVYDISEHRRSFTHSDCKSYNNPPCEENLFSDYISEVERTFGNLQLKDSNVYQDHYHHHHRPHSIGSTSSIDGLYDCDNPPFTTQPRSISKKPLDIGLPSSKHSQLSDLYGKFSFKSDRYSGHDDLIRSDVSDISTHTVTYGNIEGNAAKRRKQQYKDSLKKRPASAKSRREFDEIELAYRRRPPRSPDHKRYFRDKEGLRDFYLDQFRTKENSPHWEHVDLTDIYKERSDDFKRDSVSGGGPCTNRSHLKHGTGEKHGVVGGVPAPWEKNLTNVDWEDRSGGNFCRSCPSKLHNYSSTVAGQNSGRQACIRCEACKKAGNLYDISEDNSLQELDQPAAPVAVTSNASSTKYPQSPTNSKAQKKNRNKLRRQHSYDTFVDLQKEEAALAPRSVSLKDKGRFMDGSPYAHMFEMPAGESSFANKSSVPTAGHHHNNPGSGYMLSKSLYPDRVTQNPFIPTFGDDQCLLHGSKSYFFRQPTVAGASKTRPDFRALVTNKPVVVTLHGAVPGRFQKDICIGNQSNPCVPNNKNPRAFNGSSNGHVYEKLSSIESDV
GluN1/GluN2A NMDA receptor, sequence (Q00959 23-1464, other chains not shown): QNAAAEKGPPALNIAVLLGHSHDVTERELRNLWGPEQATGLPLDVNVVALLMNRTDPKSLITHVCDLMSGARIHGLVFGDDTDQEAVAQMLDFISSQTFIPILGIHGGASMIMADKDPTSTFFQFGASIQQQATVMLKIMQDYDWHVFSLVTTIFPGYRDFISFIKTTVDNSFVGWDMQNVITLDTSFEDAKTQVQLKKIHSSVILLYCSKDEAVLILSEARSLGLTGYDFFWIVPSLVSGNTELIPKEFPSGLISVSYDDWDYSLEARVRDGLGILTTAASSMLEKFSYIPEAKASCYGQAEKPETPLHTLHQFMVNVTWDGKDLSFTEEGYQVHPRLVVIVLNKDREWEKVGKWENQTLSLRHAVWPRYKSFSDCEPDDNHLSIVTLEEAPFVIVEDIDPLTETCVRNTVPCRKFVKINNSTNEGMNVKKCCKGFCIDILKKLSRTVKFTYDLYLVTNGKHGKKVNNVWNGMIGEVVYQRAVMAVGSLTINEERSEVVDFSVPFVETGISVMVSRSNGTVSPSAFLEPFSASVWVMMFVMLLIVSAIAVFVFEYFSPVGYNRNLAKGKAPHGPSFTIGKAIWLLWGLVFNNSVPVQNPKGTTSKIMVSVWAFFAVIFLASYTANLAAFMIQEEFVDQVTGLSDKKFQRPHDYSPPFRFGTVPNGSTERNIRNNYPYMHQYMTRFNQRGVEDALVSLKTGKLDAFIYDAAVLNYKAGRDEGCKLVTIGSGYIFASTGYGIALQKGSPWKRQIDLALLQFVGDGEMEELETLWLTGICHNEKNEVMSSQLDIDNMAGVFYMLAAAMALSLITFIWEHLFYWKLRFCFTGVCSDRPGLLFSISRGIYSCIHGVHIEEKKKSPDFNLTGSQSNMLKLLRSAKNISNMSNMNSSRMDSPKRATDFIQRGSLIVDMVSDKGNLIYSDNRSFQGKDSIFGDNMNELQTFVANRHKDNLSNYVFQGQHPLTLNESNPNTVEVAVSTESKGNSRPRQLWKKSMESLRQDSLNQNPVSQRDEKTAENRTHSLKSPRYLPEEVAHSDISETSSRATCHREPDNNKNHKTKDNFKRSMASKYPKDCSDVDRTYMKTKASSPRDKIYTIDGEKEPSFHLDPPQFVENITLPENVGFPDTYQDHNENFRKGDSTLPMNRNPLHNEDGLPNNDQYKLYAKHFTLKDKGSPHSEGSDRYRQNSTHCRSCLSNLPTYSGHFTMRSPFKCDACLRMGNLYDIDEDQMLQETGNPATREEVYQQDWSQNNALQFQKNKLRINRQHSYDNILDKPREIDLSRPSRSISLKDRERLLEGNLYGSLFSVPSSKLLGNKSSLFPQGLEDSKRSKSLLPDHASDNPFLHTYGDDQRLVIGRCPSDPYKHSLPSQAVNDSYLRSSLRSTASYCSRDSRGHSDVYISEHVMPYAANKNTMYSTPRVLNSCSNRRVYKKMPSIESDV
GluN1/GluN2C NMDA receptor, sequence (Q00961 20-1237, other chains not shown): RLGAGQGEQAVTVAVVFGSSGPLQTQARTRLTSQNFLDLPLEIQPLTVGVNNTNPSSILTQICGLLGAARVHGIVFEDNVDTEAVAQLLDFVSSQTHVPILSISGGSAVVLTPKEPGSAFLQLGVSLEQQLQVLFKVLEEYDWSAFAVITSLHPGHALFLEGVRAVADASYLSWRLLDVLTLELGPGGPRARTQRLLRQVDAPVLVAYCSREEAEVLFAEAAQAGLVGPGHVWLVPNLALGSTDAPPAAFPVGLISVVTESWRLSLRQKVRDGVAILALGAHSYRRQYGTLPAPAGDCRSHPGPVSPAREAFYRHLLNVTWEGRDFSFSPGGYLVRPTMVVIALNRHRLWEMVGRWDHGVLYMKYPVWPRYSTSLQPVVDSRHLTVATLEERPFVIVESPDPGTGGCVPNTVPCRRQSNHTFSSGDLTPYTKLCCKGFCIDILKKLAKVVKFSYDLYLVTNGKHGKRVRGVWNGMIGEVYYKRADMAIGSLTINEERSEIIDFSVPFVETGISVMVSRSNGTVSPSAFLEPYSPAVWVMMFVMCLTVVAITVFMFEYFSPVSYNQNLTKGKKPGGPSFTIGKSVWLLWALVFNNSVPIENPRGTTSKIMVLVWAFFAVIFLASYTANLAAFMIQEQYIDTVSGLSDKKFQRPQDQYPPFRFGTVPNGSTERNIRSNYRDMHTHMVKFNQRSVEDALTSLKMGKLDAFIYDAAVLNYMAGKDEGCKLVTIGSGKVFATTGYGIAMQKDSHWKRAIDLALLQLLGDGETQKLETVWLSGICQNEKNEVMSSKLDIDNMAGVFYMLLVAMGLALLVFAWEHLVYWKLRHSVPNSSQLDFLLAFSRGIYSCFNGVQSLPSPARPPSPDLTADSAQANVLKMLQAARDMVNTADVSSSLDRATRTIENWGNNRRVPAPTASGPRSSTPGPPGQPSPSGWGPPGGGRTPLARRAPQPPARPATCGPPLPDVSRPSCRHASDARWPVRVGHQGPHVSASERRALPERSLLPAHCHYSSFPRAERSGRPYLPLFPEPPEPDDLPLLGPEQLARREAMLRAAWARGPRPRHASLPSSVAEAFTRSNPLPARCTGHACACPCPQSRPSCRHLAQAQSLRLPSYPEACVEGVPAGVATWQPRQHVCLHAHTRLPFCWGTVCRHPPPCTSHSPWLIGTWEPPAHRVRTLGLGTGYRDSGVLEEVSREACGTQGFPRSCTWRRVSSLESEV

SMILES: O=C(O)c1cc2cc(Br)ccc2c(Br)c1O [UBP552, 1,6-Dibromo-2-hydroxy-3-naphthoic acid]
- antagonist activity at AMPA receptors (AMPA receptors): has antagonist activity
- ability to fully inhibit receptor responses ([1]; all GluN1/GluN2A-D receptors): able to fully inhibit all receptor responses
- % Max. Inh. GluN1/GluN2A [2, 8]: 105.6 ± 4.3%
- IC50 [2, 9]: 6.29 ± 0.88 µM
- IC50 ([2]; [Gly] 10 μM, [L-Glu] 2.0 μM): 5.05 ± 0.73 µM
- IC50 ([2]; [Gly] 10 μM, [L-Glu] 300 μM): 8.58 ± 0.84 µM
- IC50 ([2]; [Gly] 300 μM, [L-Glu] 10 μM): 10 ± 1.93 µM
- IC50 ([2]; [Gly] 300 μM, [L-Glu] 300 μM): 15.5 ± 1.73 µM
- inhibition of receptor responses in the absence of the NTD ([3]; NTD deleted on GluN1 and GluN2A (Figure 4C)): still able to inhibit
- effect of NTD deletion on inhibitory potency ([3]; compared with wild-type GluN1/GluN2A): increased the potency
- inhibition of receptor responses in the absence of the NTD ([4]; NTD deleted on GluN1 and GluN2D (Figure 4C)): still able to inhibit
- effect of NTD deletion on inhibitory potency ([4]; compared with wild-type GluN1/GluN2D): decreased the inhibitory potency
- % Max. Inh. GluN1/GluN2B [5]: 108.3 ± 2.0%
- % Max. Inh. GluN1/GluN2D [6, 8]: 103.6 ± 2.2%
- effect on oocytes expressing GluN1/GluN2D receptors without agonists ([6]; 100 μM compound in the absence of L-glutamate and glycine): no detectable effect
- IC50 [6, 9]: 3.35 ± 0.18 µM
- IC50 ([6]; [Gly] 10 μM, [L-Glu] 0.3 μM): 6.26 ± 0.58 µM
- IC50 ([6]; [Gly] 10 μM, [L-Glu] 300 μM): 3.35 ± 0.82 µM
- IC50 ([6]; [Gly] 300 μM, [L-Glu] 10 μM): 3.73 ± 0.75 µM
- IC50 ([6]; [Gly] 300 μM, [L-Glu] 300 μM): 4.85 ± 0.27 µM
- decrease of IC50 values ([6]; increasing L-glutamate from 0.3 μM to 10 μM or to 300 μM, p < 0.05): 46%

SMILES: O=C(O)c1cc(Br)c2ccc(Br)cc2c1 [UBP628, 1,6-Dibromo-3-naphthoic acid]
- % Max. Inh. GluN1/GluN2A [2, 8]: 104.3 ± 4.3%
- fold lower potency than UBP552 at GluN1/GluN2A ([2]; from IC50 values, Table 1): 3 fold
- % Max. Inh. GluN1/GluN2B [5]: 84.4 ± 12.5%
- % Max. Inh. GluN1/GluN2D [6, 8]: 112.4 ± 21.3%
- fold lower potency than UBP552 for GluN1/GluN2D ([6]; from IC50 values, Table 1): 33 fold
- % Max. Inh. GluN1/GluN2C [7]: 103.0 ± 7.1%

SMILES: O=C(O)c1cc2cc(Br)ccc2c(I)c1O [UBP620, 6-bromo-2-hydroxy-1-iodo-3-naphthoic acid]
- % Max. Inh. GluN1/GluN2A [2, 8]: 90% and 90.5 ± 7.4%
- % Max. Inh. GluN1/GluN2B [5]: 90% and 90.6 ± 10.7%
- % Max. Inh. GluN1/GluN2D [6, 8]: 107.1 ± 4.3%
- % Max. Inh. GluN1/GluN2C [7]: 96.1 ± 2.3%

SMILES: O=C(O)c1cc2cc(-c3ccccc3)ccc2c(I)c1O [UBP619, 2-hydroxy-1-iodo-6-phenyl-3-naphthoic acid]
- % Max. Inh. GluN1/GluN2A [2, 8]: 78.8 ± 2.5^CHI %
- % Max. Inh. GluN1/GluN2B [5]: 82.1 ± 3.1%
- % Max. Inh. GluN1/GluN2D [6, 8]: 97.0 ± 2.2%
- % Max. Inh. GluN1/GluN2C [7]: 77.3 ± 5.0^EHI %

SMILES: Oc1ccc2cc(Br)ccc2c1Br [UBP644, 1,6-dibromo-2-naphthol]
- Inhibitory activity at NMDA receptors (Figure 2) ([1]; compound at 100 μM, GluN1/GluN2A-D, 10 μM L-glutamate plus 10 μM glycine): virtually inactive; also recorded: eliminated activity

SMILES: O=C(O)c1cc2cc(-c3ccccc3)ccc2cc1O [UBP617, 2-hydroxy-6-phenyl-3-naphthoic acid]
- % Max. Inh. GluN1/GluN2A [2, 8]: 71.5 ± 6.4C^c-iHI %
- % Max. Inh. GluN1/GluN2B [5]: 56.8 ± 5.2^c-ic-ic-ic-iI %
